Measurements from article PMC7031696 (Cell chemical biology, 2019).

Test system: 3D7-MR4 trophozoite parasite-infected RBCs
Test: Metabolomic profiling (hydrophilic metabolite changes, UHPLC-MS)
Type: cell-based, Plasmodium falciparum

CC(C)(C)c1ccc2c(c1)CN(Cc1ccc(Cl)cc1)CO2 [MMV000442]
Log2(fold changes) adenosine (metabolite adenosine, log2 fold change): 0.0000 | Log2(fold changes) alanine/sarcosine (metabolite alanine/sarcosine, log2 fold change): -0.9186 | Log2(fold changes) anthranilate (metabolite anthranilate, log2 fold change): 0.3315 | Log2(fold changes) arginine (metabolite arginine, log2 fold change): -1.6314 | Log2(fold changes) asparagine (metabolite asparagine, log2 fold change): -0.3296 | Log2(fold changes) aspartate (metabolite aspartate, log2 fold change): -0.6205 | Log2(fold changes) biotin (metabolite biotin, log2 fold change): -0.8987 | Log2(fold changes) cCMP (metabolite cCMP, log2 fold change): 0.0000 | Log2(fold changes) cGMP (metabolite cGMP, log2 fold change): 0.0000 | Log2(fold changes) carnitine (metabolite carnitine, log2 fold change): 0.0000 | Log2(fold changes) citrate/isocitrate (metabolite citrate/isocitrate, log2 fold change): 0.0000 | Log2(fold change) of coenzyme A (metabolite coenzyme A): 0.0000 | Log2(fold change) of cyclic-AMP (metabolite cyclic-AMP): -0.6289 | Log2(fold change) of cytidine (metabolite cytidine): 0.6525 | Log2(fold change) of dAMP (metabolite dAMP): 0.2859 | Log2(fold change) of dATP (metabolite dATP): 0.0000 | Log2(fold change) of dCDP (metabolite dCDP): -0.4379 | Log2(fold change) of dCMP (metabolite dCMP): 0.0000 | Log2(fold change) of dCTP (metabolite dCTP): 0.0000 | Log2(fold change) of dGDP/ADP (metabolite dGDP/ADP): -0.0785 | Log2(fold change) of dGMP/AMP (metabolite dGMP/AMP): 0.0000 | Log2(fold change) of dGTP/ATP (metabolite dGTP/ATP): 0.0000 | Log2(fold change) of dTDP (metabolite dTDP): -0.1987 | Log2(fold change) of dTMP (metabolite dTMP): 0.0000 | Log2(fold change) of dTTP (metabolite dTTP): -0.2587 | Log2(fold change) of dUMP (metabolite dUMP): 0.0000 | Log2(fold change) of dUTP (metabolite dUTP): -0.3266 | Log2(fold change) of deoxyguanosine (metabolite deoxyguanosine): 0.0000 | Log2(fold change) of deoxyinosine (metabolite deoxyinosine): 0.0000 | Log2(fold change) of deoxyribose-phosphate (metabolite deoxyribose-phosphate): 0.7610 | Log2(fold change) of deoxyuridine (metabolite deoxyuridine): 0.1388 | Log2(fold change) of dihydroorotate (metabolite dihydroorotate): -0.6717 | Log2(fold change) of folate (metabolite folate): -0.1041 | Log2(fold change) of fructose-1-6-bisphosphate (metabolite fructose-1-6-bisphosphate): -0.1009 | Log2(fold change) of fructose-6-phosphate (metabolite fructose-6-phosphate): -0.3802 | Log2(fold change) of fumarate (metabolite fumarate): -0.7813 | Log2(fold change) of glucono-lactone (metabolite glucono-lactone): 0.0000 | Log2(fold change) of glucose-1/6-phosphate (metabolite glucose-1/6-phosphate): 0.0000 | Log2(fold change) of glutamate (metabolite glutamate): -0.2803 | Log2(fold change) of glutamine (metabolite glutamine): -0.0929 | Log2(fold change) of glutathione (metabolite glutathione): -0.1808 | Log2(fold change) glutathione disulfide (metabolite glutathione disulfide): -0.3868 | Log2(fold change) glycerate (metabolite glycerate): -0.4490 | Log2(fold change) guanine (metabolite guanine): -0.8448 | Log2(fold change) guanosine (metabolite guanosine): -1.2469 | Log2(fold change) histidine (metabolite histidine): -1.0996 | Log2(fold change) homocysteic acid (metabolite homocysteic acid): -0.4943 | Log2(fold change) hydroxyphenylpyruvate (metabolite hydroxyphenylpyruvate): 0.0000 | Log2(fold change) hydroxyproline/Aminolevulinate (metabolite hydroxyproline/Aminolevulinate): -0.0777 | Log2(fold change) hypoxanthine (metabolite hypoxanthine): -0.1293 | Log2(fold change) indole (metabolite indole): 0.0000 | Log2(fold change) inosine (metabolite inosine): -0.6031 | Log2(fold change) isoleucine (metabolite isoleucine): -0.8559 | Log2(fold change) lactate (metabolite lactate): -0.6662 | Log2(fold change) leucine (metabolite leucine): 0.0000 | Log2(fold change) lysine (metabolite lysine): -2.7291 | Log2(fold change) malate (metabolite malate): -1.5961 | Log2(fold change) maleic acid (metabolite maleic acid): 0.0000 | Log2(fold change) methionine (metabolite methionine): -0.3354 | Log2(fold change) myo-inositol (metabolite myo-inositol): 0.0000 | Log2(fold change) nicotinamide mononucleotide (metabolite nicotinamide mononucleotide): -1.1163 | Log2(fold change) nicotinate (metabolite nicotinate): -0.1414 | Log2(fold change) ornithine (metabolite ornithine): -0.3825 | Log2(fold change) orotate (metabolite orotate): 0.0000 | Log2(fold change) orotidine-5'-phosphate (metabolite orotidine-5'-phosphate): -4.2271 | Log2(fold change) oxaloacetate (metabolite oxaloacetate): 0.0000 | Log2(fold change) p-aminobenzoate (metabolite p-aminobenzoate): 0.0000 | Log2(fold change) p-hydroxybenzoate (metabolite p-hydroxybenzoate): 0.0000 | Log2(fold change) pantothenate (metabolite pantothenate): -0.5576 | Log2(fold change) phenylalanine (metabolite phenylalanine): -0.7473 | Log2(fold change) phenylpyruvate (metabolite phenylpyruvate): 0.0000 | Log2(fold change) phosphoenolpyruvate (metabolite phosphoenolpyruvate): 0.5342 | Log2(fold change) prephenate (metabolite prephenate): -0.6985 | Log2(fold change) proline (metabolite proline): -0.4674 | Log2(fold change) pyridoxine (metabolite pyridoxine): -0.4977 | Log2(fold change) pyruvate (metabolite pyruvate): -0.6971 | Log2(fold change) riboflavin (metabolite riboflavin): 0.0000 | Log2(fold change) ribose (metabolite ribose): -0.3439 | Log2(fold change) ribose-phosphate (metabolite ribose-phosphate): -0.4255 | Log2(fold change) ribulose-5-phosphate (metabolite ribulose-5-phosphate): 0.0000 | Log2(fold change) serine (metabolite serine): -0.2977 | Log2(fold change) sn-glycerol-3-phosphate (metabolite sn-glycerol-3-phosphate): 0.0000 | Log2(fold change) succinate/Methylmalonic acid (metabolite succinate/Methylmalonic acid): 0.2362 | Log2(fold change) succinyl-CoA/methylmalonyl-CoA (metabolite succinyl-CoA/methylmalonyl-CoA): 0.0000 | Log2(fold change) taurine (metabolite taurine): 0.0000 | Log2(fold change) thiamine (metabolite thiamine): -0.4264 | Log2(fold change) threonine/homoserine (metabolite threonine/homoserine): -0.5095 | Log2(fold change) thymidine (metabolite thymidine): 0.0000 | Log2(fold changes) thymine (metabolite thymine, log2 fold change): 0.0000 | Log2(fold changes) trehalose-6-Phosphate (metabolite trehalose-6-Phosphate, log2 fold change): 0.0000 | Log2(fold changes) tryptophan (metabolite tryptophan, log2 fold change): -0.3248 | Log2(fold changes) tyrosine (metabolite tyrosine, log2 fold change): -0.3731 | Log2(fold changes) uridine (metabolite uridine, log2 fold change): -0.7263 | Log2(fold changes) valine (metabolite valine, log2 fold change): 0.0000 | Log2(fold changes) xanthine (metabolite xanthine, log2 fold change): 0.0000 | Log2(fold changes) xanthosine-5-phosphate (metabolite xanthosine-5-phosphate, log2 fold change): 0.0000 | Log2(fold changes) xanthosine (metabolite xanthosine, log2 fold change): -0.5168 | Log2(fold changes) xylose (metabolite xylose, log2 fold change): 0.0000
